Measured values from publication PMC7782499, “Progerinin, an optimized progerin-lamin A binding inhibitor, ameliorates premature senescence phenotypes of Hutchinson-Gilford progeria syndrome” (Communications Biology, 2021).
Several values for one entry are separate records, joined by “and”; a condition that tells them apart may be missing. Equal values may be shown once.

What was measured:
[1] = system: HGPS cells; test: Cell proliferation of HGPS cells (MTT assay, cell counting); type: cell-based, human; details: for Cell proliferation (rate): 7 days, normalized to DMSO-treated cells
Method: (§1) To determine the cellular viability, cells were treated with lonafarnib or SLC-D011 for 2 weeks. For MTT assay, cells were incubated with 0.5 mg/ml of 3-(4,5-dimethythiazol-2-yl)-2,5-diphenyl tetrazolium bromide (MTT) solution for 6 hr at 37 °C. After removing MTT solution, the precipitated materials were dissolved in […] DMSO and quantified by measuring the absorbance at 540 nm.
Fig. S4. Ef fect s of J H4, J H010, and SLC-D011 in ameliorating nuclear deformation of HGPS fibroblasts.
A. JH4, JH010, and SLC-D011 increase population of HGPS cells (n = 3 independent experiment; two-
tailed Student’s t -test), **p<0.001. […]
DAPI indicated DNA. C. Treatment with SLC-D011 (1 µM) for 7 days increased
cell proliferation in three different HGPS cells but not in normal fibroblasts (n = 3 independent experiments;
two-tailed Student’s t-test), **p < 0.001, N.S: not significant. AU, arbitrary units. […]

[2] = system: HGPS cells; test: Nuclear deformation counting in HGPS cells; type: cell-based, human; set-up: key to Nuclear deformation (rate): fraction of nuclear-deformed cells, relative to DMSO-treated cells; details: for Nuclear deformation (rate): 7 days, normalized to DMSO-treated cells; for Nuclear deformation: AG03198
Method: (§2) Fig. 1 SLC-D011 ameliorates premature aging features of HGPS. A. HEK293 cells were transiently transfected with expression vector encoding wild-type lamin A (WT-LA), lamin A-C661A (LA-C661A), progerin, or progerin-C611A. LA-C661A or progerin-C611A with point mutation in CaaX motif was predicted to be lack of farnesylation, […] that of authentic WT-LA or progerin. GFP-conjugated empty expression vector was used as a negative control. Cells were visualized at 24 h after transfection. B Transient transfection of HEK293 cells with expression vector encoding progerin or […] leads to reduced expression of H3K9me3 (n = 3 independent experiments; two-tailed Student’s t test). C. JH4 derivatives (JH010 and SLC-D011(D011)) inhibit lamin A and progerin interaction. For binding inhibition assay, bead-conjugated lamin A (GST-LA) was incubated with HEK293 cells, transiently transfected with GFP-progerin (PG), and treated with indicated chemicals. Actin was used as a loading control. PPT, co-precipitated materials with recombinant proteins; Sup supernatant. 5 μM of each chemical was used for binding assay. […] H3K9me3 reduction is a well-known marker for premature aged cells. Thus, H3K9me3 expression was evaluated by immunostaining. […] E SLC-D011 obviously suppresses progerin expression. For progerin expression analysis, each chemical was used to treat HGPS cells (AG03198, Coriell Cell Repositories) for 7 days. […] F SLC-D011 reduces the expression of progerin in other HGPS cells (AG11513 and AG11498, Coriell Cell Repositories). Treatment with SLC-D011 (2 μM) for 7 days reduced the expression of progerin and p16/INK4A but induced the expression of H3K9me3. […] G JH4, JH010, and SLC-D011 promote cell proliferation. Cell viability was determined by MTT assay after incubation with chemicals for 7 days (n = 3 independent experiments; two-tailed Student’s t test). H JH4, JH010, and SLC-D011 show similar activity for ameliorating nuclear deformation. After incubation with chemicals for 7 days, cells were stained with progerin and H3K9me3 antibodies (n = 3 independent experiment; two-tailed Student’s t test), **p < 0.001. Data are reported as mean ± SD. “Con” means Dimethyl sulfoxide (DMSO)-treated control. The data are normalized to DMSO-treated cells.
(§3) For nuclear deformation cell counting, immunofluorescence staining was performed with lamin A or progerin antibodies. After staining, abnormal nuclear membrane was counted in randomly selected fields and expressed as percentages or actual numbers of total cells counted. Abnormalities of nuclear membrane were determined based on the following: (1) lamin A/C or progerin lining was extruded or engulfed, (2) having at least one bleb, and (3) irregular contour. Counting of cells with nuclear deformation was performed by three independent observers who were blinded to chemical treatment group. To analyze histone H3K9me3 intensity or expression, images were quantified using “color histogram” function of Image J software (National Institute of Health, NIH). Fluorescence intensities were subtracted by background signals.

[3] = system: H3K9me3; test: H3K9me3 expression in HGPS cells; type: cell-based, human; details: for H3K9me3 intensity / H3K9me3 positive cells after treatment with chemicals, Ave / H3K9me3 positive cells after treatment with chemicals: AG03198; for H3K9me3 positive cells after treatment with chemicals, Ave: average; for H3K9me3 positive cells after treatment with chemicals: single replicates
Method: as §2
Cells were cultured on coverslips, washed with PBS, fixed with 4% paraformaldehyde (PFA) for 30 min at RT, and then permeabilized with 0.2% Triton X-100 at RT for 5 min. After treatment with blocking solution (anti-Human antibody diluted 1:400 in PBS) for 1 h, cells were incubated with anti-lamin A/C (1:400), anti-progerin (1:100), Ki67 (1:200), and anti-H3K9me3 (1:200) in blocking buffer overnight at 4 °C. Finally, cells were incubated with fluorescein isothiocyanate and rhodamine-conjugated secondary antibodies at 4 °C for 7 h. Nuclei were stained with DAPI (4, 6-diamidino-2-phenylindole) at RT for 10 min. After cells were washed three times with PBS, coverslips were mounted with mounting solution (H-5501; Vector Laboratories, Burlingame, CA, USA). Immunofluorescence signal was detected with a fluorescence microscopy (Zeiss and Logos).
as §3

[4] = system: normal fibroblasts and HGPS cells; test: Long-term treatment cell viability (MTT assay) in normal fibroblasts and HGPS cells; type: cell-based
Method: as §1
Fig. S12. […] A. SLC-D011, compar ed to lonafarnib, reduces exogenous progerin expression in HEK293 cells. B. Long- t e r m treatment (treated with 2μM ever y ot her day for 2 weeks) with lonafarnib or SLC-D011 was performed for normal fibroblasts and HGPS cells. […]
to determine the cellular viability after treatment with lonafarnib or SLC-D011 (n = 3 independent experiment; two-tailed Student’s t -test), **p < 0.001, *p < 0.05, N.S: not significant. […]

Question: What does the source list for `CC1(C)Oc2cc3oc(=O)ccc3cc2C[C@@H]1OC/C=C/c1ccccc1` [SLC-D011]?
Answer: Cell proliferation (rate) ([1]; AG03198, 2uM): 1.467 and 1.31 and 1.235 and 1.393 and 1.367 and 1.407; Cell proliferation (rate) ([1]; AG03198, 2uM, mean): 1.363; Cell proliferation (rate) ([1]; AG03198, 5uM): 2.067 and 2.103 and 1.735 and 2.25 and 2.2 and 2.259; Cell proliferation (rate) ([1]; AG03198, 5uM, mean): 2.102; Cell counting ([1]; AG03198, 0.1μM, Ave): 13.375; Cell counting ([1]; AG03198, 0.1μM, individual replicate): 15 and 16 and 14 and 8 and 13 and 12; Cell counting ([1]; AG03198, 0.2μM, Ave): 12.25; Cell counting ([1]; AG03198, 0.2μM, individual replicate): 11 and 14 and 12 and 13 and 16 and 10; Cell counting ([1]; AG03198, 0.5μM, Ave): 13.625; Cell counting ([1]; AG03198, 0.5μM, individual replicate): 15 and 13 and 17 and 11 and 10 and 12 and 18; Cell counting ([1]; AG03198, 1μM, Ave): 18; Cell counting ([1]; AG03198, 1μM, individual replicate): 17 and 21 and 26 and 16 and 13; Cell proliferation after treatment with SLC-D011, Ave ([1]; AG03198, average): 2.85 AU; Cell proliferation after treatment with SLC-D011 ([1]; AG03198, single replicates): 2.5 AU (2×) and 2.2 AU and 2.7 AU and 3.3 AU and 3.7 AU and 3 AU and 2.9 AU; Cell proliferation after treatment with SLC-D011, Ave ([1]; AG11498, average): 3.325 AU; Cell proliferation after treatment with SLC-D011 ([1]; AG11498, single replicates): 3.3 AU (2×) and 3.6 AU and 2.9 AU and 3.5 AU and 3.4 AU and 3.9 AU and 2.7 AU; Cell counting after treatment with chemicals, Ave ([1]; AG11513, average): 29.75; Cell proliferation after treatment with SLC-D011, Ave ([1]; AG11513, average): 2.875 AU; Cell counting after treatment with chemicals ([1]; AG11513, single replicates): 20 (2×) and 29 and 32 and 37 and 42 and 33 and 25; Cell proliferation after treatment with SLC-D011 ([1]; AG11513, single replicates): 2 AU (2×) and 2.9 AU and 3.2 AU and 3.3 AU (2×) and 3.8 AU and 2.5 AU; Cell proliferation after treatment with SLC-D011, Ave ([1]; N9, average): 3.975 AU; Cell proliferation after treatment with SLC-D011 ([1]; N9, single replicates): 3.9 AU and 4.2 AU (2×) and 3.8 AU (2×) and 4 AU and 4.4 AU and 3.5 AU; Concentration promoting cell proliferation and ameliorating nuclear abnormality ([1]; direct cell counting assay, HGPS cells): 100 nM; Nuclear deformation (rate) ([2]; AG03198, 2uM): 0.4839 and 0.6786 and 0.4545 and 0.4706 and 0.5; Nuclear deformation (rate) ([2]; AG03198, 2uM, mean): 0.5146; Nuclear deformation (rate) ([2]; AG03198, 5uM): 0.4194 and 0.4286 and 0.303 and 0.2353 and 0.3667 and 0.2941; Nuclear deformation (rate) ([2]; AG03198, 5uM, mean): 0.3412; Nuclear deformation ([2]; 0.1μM, Ave): 36.4%; Nuclear deformation ([2]; 0.1μM, individual replicate): 35% and 37% and 40% and 36% and 34%; Nuclear deformation ([2]; 0.2μM, Ave): 33.2%; Nuclear deformation ([2]; 0.2μM, individual replicate): 33% and 34% and 30% and 36%; Nuclear deformation ([2]; 0.5μM, Ave): 25.8%; Nuclear deformation ([2]; 0.5μM, individual replicate): 29% and 28% and 27% and 19% and 26%; Nuclear deformation ([2]; 1μM, Ave): 21.4%; Nuclear deformation ([2]; 1μM, individual replicate): 23% and 20% and 22% and 19%; H3K9me3 intensity [3]: 0.227 AU and 0.219 AU and 0.255 AU and 0.254 AU; H3K9me3 positive cells after treatment with chemicals, Ave ([3]; 2μM): 19.5; H3K9me3 positive cells after treatment with chemicals ([3]; 2μM): 15 and 23 and 20 and 19 and 22 and 18; H3K9me3 positive cells after treatment with chemicals, Ave ([3]; 5μM): 25.1667; H3K9me3 positive cells after treatment with chemicals ([3]; 5μM): 20 and 24 and 27 and 28 and 29 and 23; H3K9me3 positive cells after treatment with chemicals, Ave ([3]; 10μM): 29; H3K9me3 positive cells after treatment with chemicals ([3]; 10μM): 24 and 33 and 32 and 30 and 29 and 26; H3K9me3 intensity ([3]; mean): 0.2387 AU; Effect on H3K9me3 expression ([3]; HGPS cells): induce H3K9me3 expression; Cell viability ([4]; AG03198, Ave): 1.64 ratio; Cell viability ([4]; AG03198, individual replicate): 1.6383 ratio and 1.687 ratio and 1.593 ratio; Cell viability ([4]; AG11513, Ave): 1.362 ratio; Cell viability ([4]; AG11513, individual replicate): 1.362 ratio and 1.373 ratio and 1.352 ratio; Cell viability ([4]; N9, Ave): 2.552 ratio; Cell viability ([4]; N9, individual replicate): 2.559 ratio and 2.546 ratio and 2.551 ratio
